# Test results as given in paper PMC10987111, “Rational Identification of Novel Antibody‐Drug Conjugate with High Bystander Killing Effect against Heterogeneous Tumors” (Advanced Science, 2024).
# Read-outs that look alike come from different tables or passages of the source.
# T1: Topo I (Homo sapiens, UniProt P11387)
# T1 sequence (P11387 1-765): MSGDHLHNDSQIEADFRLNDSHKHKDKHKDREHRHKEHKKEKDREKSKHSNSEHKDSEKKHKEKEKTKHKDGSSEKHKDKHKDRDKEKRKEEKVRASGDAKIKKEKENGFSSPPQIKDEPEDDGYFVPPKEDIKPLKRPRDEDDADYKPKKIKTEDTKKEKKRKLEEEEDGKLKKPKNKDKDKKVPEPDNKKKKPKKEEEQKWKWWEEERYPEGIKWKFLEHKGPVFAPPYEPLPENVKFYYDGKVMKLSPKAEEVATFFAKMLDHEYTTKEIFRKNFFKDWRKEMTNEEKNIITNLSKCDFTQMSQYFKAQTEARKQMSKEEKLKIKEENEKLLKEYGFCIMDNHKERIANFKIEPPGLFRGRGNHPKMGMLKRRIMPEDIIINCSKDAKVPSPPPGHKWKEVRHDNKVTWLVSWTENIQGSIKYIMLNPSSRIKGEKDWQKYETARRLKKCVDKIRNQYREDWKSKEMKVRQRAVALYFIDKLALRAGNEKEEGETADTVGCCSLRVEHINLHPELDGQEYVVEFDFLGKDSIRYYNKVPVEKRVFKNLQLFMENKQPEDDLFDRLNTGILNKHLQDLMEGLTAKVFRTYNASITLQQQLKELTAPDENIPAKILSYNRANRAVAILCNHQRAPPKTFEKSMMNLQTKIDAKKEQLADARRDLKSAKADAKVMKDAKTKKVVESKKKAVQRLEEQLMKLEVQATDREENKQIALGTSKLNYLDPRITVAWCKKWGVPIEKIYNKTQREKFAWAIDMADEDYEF
# Legend:
# SKBR-3 = assay: Cell viability assay (CCK-8), SKBR-3; assay type: cell-based, human
# Protocol: (§1) Cells were seeded in a 96‐well plate at 1000–4000 cells per well for different cell lines. After overnight incubation, serially diluted samples (100 µL) were added to each well, and the plate was incubated at 37°C for 72 h (payloads) or 108 h (ADCs). After the old medium was replaced with 100 µL fresh medium, 10 µL of the Cell Counting Kit‐8 (CCK‐8) was added to each well, and the plate was incubated at 37°C for 2 h. After gently agitating the plate, the absorbance at 450 nm was recorded using a BioTek Synergy microplate reader. EC50 values were calculated using GraphPad Prism 9.3 software. All assays were performed in triplicate.
# MDA-MB-231 = assay: Cell viability assay (CCK-8), MDA-MB-231; assay type: cell-based, human; details: read-out: IC50 MDA-MB-231
# Protocol: as §1
# [1] = Parallel artificial membrane permeability assay (PAMPA); assay type: in vitro ADME; details: for Papp at 4 h, 10 µM: PAMPA
# Protocol: PAMPA was performed by WuXi AppTec Co., Ltd. (Wuxi, China). In brief, 150 µL of 10.0 µM donor solutions (5% DMSO) were added to each well of the donor plate, whose PVDF membrane was precoated with 5 µL of 1% lecithin/dodecane mixture. Then, 300 µL of PBS was added to each well of the PTFE acceptor plate. After incubation for 4 h at room temperature with shaking at 300 rpm, the plate was removed from the incubator, and the solution was transferred from each acceptor and donor well and mixed with acetonitrile (containing internal standard) as samples. Acceptor samples and donor samples were all analyzed by LC‐MS/MS to determine permeability rates (Pe). All assays were performed in duplicates.
# MDA-MB-361 = assay: Cell viability assay (CCK-8), MDA-MB-361; assay type: cell-based; details: Homo sapiens, MDA-MB-361, 72 h, read-out: IC50 MDA-MB-361
# Protocol: as §1
# JIMT-1 = assay: Cell viability assay (CCK-8), JIMT-1; assay type: cell-based; details: Homo sapiens, JIMT-1, 72 h, read-out: IC50 JIMT-1
# Protocol: as §1
# MDA-MB-453 = assay: Cell viability assay (CCK-8), MDA-MB-453; assay type: cell-based; details: Homo sapiens, MDA-MB-453, 72 h, read-out: IC50 MDA-MB-453
# Protocol: (§2) Cells were seeded in a 96‐well plate at 1000–4000 cells per well for different cell lines. […] After the old medium was replaced with 100 µL fresh medium, 10 µL of the Cell Counting Kit‐8 (CCK‐8) was added to each well, and the plate was incubated at 37°C for 2 h. After gently agitating the plate, the absorbance at 450 nm was recorded using a BioTek Synergy microplate reader. EC50 values were calculated using GraphPad Prism 9.3 software. All assays were performed in triplicate.
# NCI-N87 = assay: Cell viability assay (CCK-8), NCI-N87; assay type: cell-based; details: Homo sapiens, NCI-N87, 72 h, read-out: IC50 NCI-N87
# Protocol: as §2
# Topo I = target: T1, Topo I; assay: Topo I-mediated DNA cleavage assay; assay type: biochemical; details: 10 µM
# Protocol: DNA cleavage assay was performed by Huawei Pharmaceutical Co., Ltd. (Jinan, China) with reference to previous literature about camptothecin derivatives.^[ [63] ^]
# [2] = tested on: NCI-N87 and MDA-MB-231/GFP co-culture system; assay: In vitro co-culture model for bystander-killing evaluation; assay type: cell-based, human; details: GFP fluorescence intensity and fluorescence microscopy
# Protocol: After overnight incubation, a single concentration or a serially diluted solution of each ADC was added. Cell viability was evaluated after 120 h using the cell counting kit‐8 assay. The mixed cell viability was determined by CCK‐8 assay. […] In the supernatant proliferation inhibition experiment, gradient concentrations of ADC were incubated with NCI‐N87 (4000 cells per well) for 48 h.
# [3] = tested on: NCI-N87 cells and MDA-MB-231/teLuc cells (2: 5 ratio) xenograft; assay: Xenograft mouse model of HER2-heterogeneous cancer (co-inoculation) with teLuc imaging; assay type: in vivo, BALB/c nude mice; details: single intravenous dose of 2 or 5 mg kg^-1
# Protocol: On day 7, the tumors reached an average volume of ≈180 mm^3, mice were randomized to each group, and each ADC was given to the mice at a single dose of 5 or 2 mg kg^−1 through injection via the tail vein, with a volume of 10 mL kg^−1. The size of the tumor and body weight were monitored three times a week. The tumor volume was estimated on the mathematical formula, which is 1/2 × length × width^2.
# Teal luciferase activity of each mouse in the HER2‐heterogeneous xenograft model was determined by an in vivo Imaging System (IVIS) Spectrum CT (PerkinElmer, USA) once a week (Day 7, 14, 21, 35) 10 min after intraperitoneal injection of pre‐dissolved DTZ (MeisenCTCC). The amount of luminescence was analyzed using analysis software (Living Image Software version 4.3.1; PerkinElmer) as average radiance (p per s per cm^2 per sr).
# [4] = tested on: breast tumors with low HER2 expression; set-up: method as in ref 25, 26 = [25]; 25 S. Modi , W. Jacot , T. Yamashita , J. Sohn , M. Vidal , E. Tokunaga , J. Tsurutani , N. T. Ueno , A. Prat , Y. S. Chae , K. S. Lee , N. Niikura , Y. H. Park , B. Xu , X. Wang , M. Gil‐Gil , W. Li || [26]; 26 Cancer Discov. 2022 , 12 , 1828 .; details: breast tumors with low HER2 expression ref 25, 26; cited from earlier work
# [5] = tested on: HER2-low-expressing urothelial carcinoma; set-up: method as in ref 29 = [29]; 29 H. Xu , X. Sheng , L. Zhou , X. Yan , S. Li , Z. Chi , C. Cui , L. Si , B. Tang , L. Mao , B. Lian , X. Wang , X. Bai , J. Li , J. Guo , JCO 2022 , 40 , 4519 .; details: patients with HER2(IHC 1+), 5/13, phase II ref 29; cited from earlier work
# [6] = payloads, 3 days (72 h), HER2++, read-out: IC50 SKBR-3
# [7] = 10.0 µM donor solution, 4 h, room temperature
# [8] = 10.0 µM donor solution, 4 h, room temperature, read-out: Peff (PAMPA permeability)
# [9] = Homo sapiens, SK-BR-3, 72 h, read-out: IC50 SKBR-3
# [10] = Homo sapiens, SK-BR-3, read-out: pIC50 (converted)
# [11] = Homo sapiens, MDA-MB-231, payloads, 3 days (72 h), HER2-
# [12] = Homo sapiens, SK-BR-3, Normalized from IC50 (μM) against SKBR-3, read-out: pIC50 (converted)
# [13] = Homo sapiens, SK-BR-3, payloads, 3 days (72 h), HER2++, read-out: IC50 SKBR-3
molecule,measurement,setting,value
"CC[C@@]1(O)C(=O)OCc2c1cc1n(c2=O)Cc2c-1nc1cc(F)c(C)c3c1c2[C@@H](NC(=O)C(O)c1ccccc1)CC3 (single isomer, unassigned) [Ed3]",IC50,SKBR-3; [6],0.109 ± 0.0122 µM
"CC[C@@]1(O)C(=O)OCc2c1cc1n(c2=O)Cc2c-1nc1cc(F)c(C)c3c1c2[C@@H](NC(=O)C(O)c1ccccc1)CC3 (single isomer, unassigned) [Ed4]",IC50,"MDA-MB-231; payloads, 3 days (72 h), HER2-",4.41 nM
same,IC50,SKBR-3; [6],0.0495 ± 0.00832 µM
same,Peff (PAMPA permeability),[1]; [7],3.43 10^-6 cm/s
"NC(=O)N1c2ccccc2C=Cc2ccccc21 [Carbamazepine, reference compound]","Papp at 4 h, 10 µM",[1]; [8],> 10 ×10⁻⁶ cm/s
"CCC1(O)C(=O)OCc2c1cc1n(c2=O)Cc2c-1nc1cc(F)c(C)c3c1c2C(NC(=O)CO)CC3 (stereo not shown) [DXd, reference compound]",IC50,"MDA-MB-231; Homo sapiens, MDA-MB-231, 72 h",25.8 nM
same,IC50,SKBR-3; [9],0.0739 ± 0.0171 µM
same,IC50,SKBR-3; [10],0.074 µM
same,"Papp at 4 h, 10 µM",[1]; [8],3.12 ×10⁻⁶ cm/s
same,IC50,MDA-MB-361,16.4 nM
same,IC50,JIMT-1,577 nM
same,IC50,MDA-MB-453,262 nM
same,IC50,NCI-N87,9.03 nM
CC[C@@]1(O)C(=O)OCc2c1cc1n(c2=O)Cc2c-1nc1cc(F)c(C)c3c1c2[C@@H](NC(=O)[C@@H](O)C(C)C)CC3 [Ed1],IC50,SKBR-3; [9],0.129 µM
same,IC50,SKBR-3; [10],0.129 µM
CC[C@@]1(O)C(=O)OCc2c1cc1n(c2=O)Cc2c-1nc1cc(F)c(C)c3c1c2[C@@H](NC(=O)[C@H](O)C(C)C)CC3 [Ed2],IC50,"MDA-MB-231; payloads, 3 days (72 h), HER2-",8.32 nM
same,IC50,SKBR-3; [6],0.0421 µM
same,Peff (PAMPA permeability),[1]; [7],2.67 10^-6 cm/s
CC[C@@]1(O)C(=O)OCc2c1cc1n(c2=O)Cc2c-1nc1cc(F)c(C)c3c1c2[C@@H](NC(=O)C[C@@H](O)c1ccccc1)CC3 [Ed5],IC50,SKBR-3; [6],0.177 ± 0.0158 µM
CC[C@@]1(O)C(=O)OCc2c1cc1n(c2=O)Cc2c-1nc1cc(F)c(C)c3c1c2[C@@H](NC(=O)[C@H](O)C(F)(F)F)CC3 [Ed6],IC50,MDA-MB-231; [11],9.46 nM
same,IC50,SKBR-3; [12],0.0604 µM
same,IC50,SKBR-3; [13],0.0604 µM
CC[C@@]1(O)C(=O)OCc2c1cc1n(c2=O)Cc2c-1nc1cc(F)c(C)c3c1c2[C@@H](NC(=O)C(O)C(F)(F)F)CC3 (stereo partly shown) [Ed7],IC50,"MDA-MB-231; payloads, 3 days (72 h), HER2-",6.11 nM
same,IC50,SKBR-3; [6],0.0415 µM
same,Peff (PAMPA permeability),[1]; [7],4.96 10^-6 cm/s
CC[C@@]1(O)C(=O)OCc2c1cc1n(c2=O)Cc2c-1nc1cc(F)c(C)c3c1c2[C@@H](NC(=O)C(C)(C)O)CC3 [Ed8],IC50,MDA-MB-231; [11],4.21 nM
same,IC50,SKBR-3; [12],0.0144 µM
same,IC50,SKBR-3; [13],0.0144 ± 0.00379 µM
same,"Papp at 4 h, 10 µM",[1],5.74 ×10⁻⁶ cm/s
CC[C@@]1(O)C(=O)OCc2c1cc1n(c2=O)Cc2c-1nc1cc(F)c(C)c3c1c2[C@@H](NC(=O)C1(O)CCC1)CC3 [Ed9],IC50,MDA-MB-231; [11],2.69 nM
same,IC50,SKBR-3; [12],0.0132 µM
same,IC50,SKBR-3; [13],0.0131 ± 0.00424 µM
same,"Papp at 4 h, 10 µM",[1],5.66 ×10⁻⁶ cm/s
same,IC50,"MDA-MB-361; payloads, 3 days, HER2+",1.69 nM
same,Topo I inhibitory activity,Topo I,significantly lower than that of DXd
same,IC50,"JIMT-1; payloads, 3 days, HER2+",193 nM
same,IC50,"MDA-MB-453; payloads, 3 days, HER2+",120 nM
same,IC50,"NCI-N87; payloads, 3 days, HER2++",1.17 nM
CC[C@@]1(O)C(=O)OCc2c1cc1n(c2=O)Cc2c-1nc1cc(F)c(C)c3c1c2[C@@H](NC(=O)C1(O)CCCC1)CC3 [Ed10],IC50,"MDA-MB-231; Homo sapiens, MDA-MB-231, 72 h",5.17 nM
same,IC50,SKBR-3; [9],0.0178 ± 0.00369 µM
same,IC50,SKBR-3; [10],0.0178 µM
same,Topo I inhibitory activity,Topo I,lose their inhibitory activity
CC[C@@]1(O)C(=O)OCc2c1cc1n(c2=O)Cc2c-1nc1cc(F)c(C)c3c1c2[C@@H](NC(=O)C1(O)CCCCC1)CC3 [Ed11],IC50,"MDA-MB-231; payloads, 3 days (72 h), HER2-",5.43 nM
same,IC50,SKBR-3; [6],0.0177 ± 0.00534 µM
same,Peff (PAMPA permeability),[1]; [7],6.12 10^-6 cm/s
T-DM1,killing of both NCI-N87 and MDA-MB-231/GFP cells in co-culture,[2],did not
same,tumor volume change,[3],less effective
same,effect,[4],limited effect
"Disitamab Vedotin (conjugate, chains of the INN, looked up, vedotin (MMAE) payload) VH: EVQLVQSGAEVKKPGATVKISCKVSGYTFTDYYIHWVQQAPGKGLEWMGRVNPDHGDSYYNQKFKDKATITADKSTDTAYMELSSLRSEDTAVYFCARNYLFDHWGQGTLVTVSS VL: DIQMTQSPSSVSASVGDRVTITCKASQDVGTAVAWYQQKPGKAPKLLIYWASIRHTGVPSRFSGSGSGTDFTLTISSLQPEDFATYYCHQFATYTFGGGTKVEIK",ORR,[5],38%
